The values that follow come from US20090105278A1, “Selective inhibitors of human corticosteroid syntheses” (Universitat Des Saarlandes, priority 2004, published 2009).

Read-outs that look alike come from different tables or passages of the source.

One data set deals with T1, human CYP17 (Homo sapiens, UniProt P05093).
T1 construct: made in house; host or cells: E. coli pJL17/OR (membrane fraction)
T1 sequence (P05093 1-508): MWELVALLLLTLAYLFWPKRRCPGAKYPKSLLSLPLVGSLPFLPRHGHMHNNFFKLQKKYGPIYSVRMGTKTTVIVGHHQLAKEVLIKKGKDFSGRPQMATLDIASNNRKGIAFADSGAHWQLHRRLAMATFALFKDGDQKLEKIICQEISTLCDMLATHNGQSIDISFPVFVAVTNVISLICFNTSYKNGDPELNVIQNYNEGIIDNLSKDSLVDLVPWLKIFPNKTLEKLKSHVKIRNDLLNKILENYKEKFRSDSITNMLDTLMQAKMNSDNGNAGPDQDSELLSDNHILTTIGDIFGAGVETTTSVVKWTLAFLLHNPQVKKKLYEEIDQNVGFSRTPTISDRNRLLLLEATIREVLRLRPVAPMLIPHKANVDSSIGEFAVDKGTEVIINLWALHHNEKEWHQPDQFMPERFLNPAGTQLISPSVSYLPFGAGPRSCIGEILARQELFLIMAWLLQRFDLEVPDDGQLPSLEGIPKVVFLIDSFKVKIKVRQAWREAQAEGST
Nature of the data set: Percent inhibition of CYP17 (membrane fraction of E. coli pJL17/OR). Format: biochemical. Particulars: for inhibition at 2.5 µM: read-out: % Inhibition human CYP17. As to the method: The recombinantly altered E. coli strain pJL17/OR, in which human CYP17 and rat NADPH-P450-reductase were coexpressed, was grown and stored according to the method of Ehmer et al. (Ehmer, P. B. et al., J. Steroid Biochem. Mol. Biol. 75: 57-63 (2000)). For isolating the membrane fraction, 5 ml of the bacterial cell suspension with an OD578 of 50 was washed with phosphate buffer (0.05 M; pH 7.4; 1 mM MgCl2; 0.1 mM EDTA and 0.1 mM DTT). The bacteria were removed by centrifugation and resuspended in 10 ml of ice cold TES buffer (0.1 M tris-acetate; pH 7.8; 0.5 mM EDTA; 0.5 M sucrose). Four milligrams of lysozyme in 10 ml of ice cold water was added to obtain a final concentration of 0.2 mg/ml. This was followed by incubation for 30 minutes under continued shaking on ice. The spheroblasts were obtained by a renewed centrifugation step at 12,000 g for 10 min and again resuspended in 3 ml of ice cold phosphate buffer (composition see above, additionally 0.5 mM PMSF).
After freezing and thawing, the cells were lysed on ice with an ultrasonic disintegrator. The whole cells and the cell debris were centrifuged off at 3000 g for 7 min. The supernatant was again centrifuged at 50,000 g for 20 min at 4° C. A membrane pellet sedimented and was resuspended in 2 ml of phosphate buffer (composition see above) with […] by means of an Ultra-Turrax mixer. […] Aliquots with an approximate protein concentration of 5 mg/ml were stored at −70° C. until use.
Control incubations were performed in parallel with 5 μl DMSO without urea. The reaction was started by adding 50 μl of a membrane suspension diluted 1 to 5 in phosphate buffer (0.8 to 1 mg of protein per ml). After thoroughly mixing the components, the mixture was incubated at 37° C. for 30 min.
The steroids were extracted with 1 ml of EtOAc. […] After the centrifugation, 800 μl of the organic phase was removed, placed into a new vessel and evaporated to dryness. The samples were dissolved in 50 μl of a water-methanol mixture (1:1) and analyzed by HPLC. The substrate conversion was calculated from the ratio of the areas of the product peaks (17α-hydroxyprogesterone and 16α-hydroxyprogesterone) to that of the substrate peak. The activity of the inhibitors was calculated from the reduced substrate conversion after the addition of inhibitors in accordance with the following formula: […]

A further data set has as its target T2, human CYP11B2 (Homo sapiens, UniProt P19099).
T2 sequence (P19099 25-503): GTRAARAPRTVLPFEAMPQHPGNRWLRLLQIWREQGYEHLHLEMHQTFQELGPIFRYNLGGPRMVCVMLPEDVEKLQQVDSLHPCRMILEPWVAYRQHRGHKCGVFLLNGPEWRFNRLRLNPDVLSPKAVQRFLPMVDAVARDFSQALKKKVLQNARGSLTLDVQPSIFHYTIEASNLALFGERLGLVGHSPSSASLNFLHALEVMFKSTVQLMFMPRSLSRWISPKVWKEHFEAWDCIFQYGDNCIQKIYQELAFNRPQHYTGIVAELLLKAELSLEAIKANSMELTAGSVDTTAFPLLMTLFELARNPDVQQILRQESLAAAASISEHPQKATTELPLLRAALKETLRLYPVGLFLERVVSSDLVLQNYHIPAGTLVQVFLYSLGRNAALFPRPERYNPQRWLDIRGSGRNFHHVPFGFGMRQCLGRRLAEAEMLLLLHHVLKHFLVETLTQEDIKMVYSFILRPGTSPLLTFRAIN
As to the kind of experiment: Screening test in transgenic fission yeast (S. pombe PE1) expressing human CYP11B2. The arrangement: expressed in transfected cells. Particulars: S. pombe cells which express human CYP11B2, deoxycorticosterone substrate 100 nM, inhibitor 500 nM; for inhibition at 0.5 µM: read-out: % Inhibition human hCYP11B2. Format: cell-based. As to the method: 492.5 μl of this cell suspension was admixed with 5 μl of inhibitor solution (50 μM of the compound to be tested in ethanol or DMSO) and incubated at 32° C. for 15 min. Controls were admixed with 5 μl of ethanol. […] The test was quenched by extracting the sample with 500 μl of EtOAc. After centrifugation (10,000 g, 2 min), the EtOAc phase was removed and evaporated to dryness. […] The reaction of the substrate to form corticosterone was analyzed by HPTLC (see below).
The quantification of the spots for the substrate deoxycorticosterone and the products corticosterone (and, if detectable, 18-hydroxycorticosterone and aldosterone) was effected with the related evaluation program AIDA. […] The calculation of the conversion rate was effected according to equation 1.
The plate was developed twice with the mobile solvent chloroform:methanol:water (300:20:1). Unlabeled 11-deoxycorticosterone and corticosterone were applied as a reference for the CYP11B1 reaction. For the CYP11B2 reaction, 11-deoxycorticosterone, corticosterone, 18-hydroxycorticosterone and aldosterone were used as references. The detection of the unlabeled references was effected at 260 nm. Subsequently, imaging plates (BAS MS2340, for ^14C samples, Raytest, Straubenhardt, Germany) were exposed to the HPTLC plates for 48 h. The imaging plates were scanned with the phosphoimager system Fuji FLA 3000 (Raytest, Straubenhardt, Germany), and the steroids were quantified.

The next data set deals with T3, bovine adrenal CYP11B (Bos taurus, UniProt P15150).
T3 sequence (P15150 25-503): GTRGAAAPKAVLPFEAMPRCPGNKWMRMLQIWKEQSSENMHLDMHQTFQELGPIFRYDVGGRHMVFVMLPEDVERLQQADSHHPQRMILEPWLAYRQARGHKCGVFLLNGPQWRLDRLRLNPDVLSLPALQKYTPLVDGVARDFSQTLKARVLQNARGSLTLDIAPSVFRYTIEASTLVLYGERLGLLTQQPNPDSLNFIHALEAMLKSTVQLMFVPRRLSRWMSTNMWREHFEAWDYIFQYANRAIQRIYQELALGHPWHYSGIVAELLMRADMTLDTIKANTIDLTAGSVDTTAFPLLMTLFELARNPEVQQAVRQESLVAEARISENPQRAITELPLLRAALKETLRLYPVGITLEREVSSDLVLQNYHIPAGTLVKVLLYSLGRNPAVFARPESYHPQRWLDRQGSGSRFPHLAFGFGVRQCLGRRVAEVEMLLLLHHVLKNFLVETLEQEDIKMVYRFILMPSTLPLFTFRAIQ
Nature of the data set: Percent inhibition of bovine CYP11B (adrenal mitochondria). Particulars: corticosterone substrate 200 μM, inhibitor 1 μM; for % Inhibition bovine bCYP11B: bovine adrenal mitochondria, 1 mg/ml protein; for inhibition at 1 µM: read-out: % Inhibition bovine bCYP11B, bovine adrenal mitochondria, 1 mg/ml protein.

The next data set has as its target T4, CYP11B1 in NCI-H295R (Homo sapiens, UniProt P15538).
T4 sequence (P15538 25-503): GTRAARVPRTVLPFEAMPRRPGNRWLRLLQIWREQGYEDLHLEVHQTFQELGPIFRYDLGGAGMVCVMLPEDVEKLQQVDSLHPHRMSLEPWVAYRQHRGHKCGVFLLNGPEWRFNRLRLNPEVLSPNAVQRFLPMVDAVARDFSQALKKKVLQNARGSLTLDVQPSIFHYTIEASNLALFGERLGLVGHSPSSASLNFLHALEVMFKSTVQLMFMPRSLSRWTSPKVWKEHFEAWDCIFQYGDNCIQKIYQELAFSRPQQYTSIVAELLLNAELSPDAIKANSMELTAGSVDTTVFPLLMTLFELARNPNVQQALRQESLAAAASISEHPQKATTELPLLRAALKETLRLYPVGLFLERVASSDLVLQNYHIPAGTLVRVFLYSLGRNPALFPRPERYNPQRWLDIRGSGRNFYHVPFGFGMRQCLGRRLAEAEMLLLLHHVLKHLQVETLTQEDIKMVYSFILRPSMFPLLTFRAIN
As to the kind of experiment: cell-based. Particulars: read-out: NCI-H295R CYP11B1 RSS % inhibition. As to the method:
For testing inhibitors, a preincubation for one hour was performed first, followed by starting the enzyme reactions by adding substrate (500 nM).
A) Seeding: The cell lines were grown and passaged until a confluent cell lawn had formed. By tryptic treatment, the cell material of at least two culture dishes was obtained, and the number of cells determined by means of a CASY TT cell counter (150 μl capillary). […] With the cell material of two confluently grown culture dishes, two 24-well plates could be coated. After 24 hours, the cells had grown on, and after another 24 hours' stimulation phase with a solution containing potassium ions (final concentration: 20 mM KCl), could be employed for the test.
Of this solution, 5 μl each was added to the samples.
Then, the 24-well plate was stored in a CO2 incubator at 37° C. and […]. The incubation time was 3 hours when deoxycorticosterone was used as the substrate, 24 Hours for corticosterone, and 48 hours for deoxycortisol.
Test stop: After elapse of the incubation times, the plates were briefly swung, and then the content of the wells was removed quantitatively if possible and inactivated by mixing with 1000 μl of dichloromethane in a 2 ml Eppendorf vessel. After 10 minutes of shaking, it was centrifuged for phase separation, and the […], organic phase was transferred into a 1.5 ml Eppendorf vessel. […]

For another data set, the system named is ACTH-stimulated rats. The settings on record: Hausler et al. 1989; cited from earlier work.
[1] abbreviates: E. coli which expresses human CYP17, 5 mg/ml protein, progesterone substrate 2.5 μM, inhibitor 2.5 μM.

Procedure for bovine adrenal CYP11B: Bovine adrenal glands obtained freshly after slaughtering were stored in ice cold Tris-sucrose buffer (0.25 M sucrose, 0.05 M Tris; pH 7.4) until processed. After removing the appending adipose tissue, the adrenal medulla was carefully separated from the adrenal cortex using scissors. The pieces of adrenal cortex were coarsely comminuted with scissors, washed with Tris-sucrose buffer, weighed and finely comminuted in the above buffer (2 ml per g of tissue) with a hand mixer. Thereafter, the tissue was homogenized with an Ultra-Turrax mixer. For separating coarse cell debris and the nuclei, the homogenizate was centrifuged twice for 15 min at 900 g and 4° C. The supernatant was subsequently centrifuged for 35 min at 11,000 g for recovering the mitochondrial fraction. For purifying the mitochondrial fraction, the precipitate was resuspended in Tri-sucrose buffer and again centrifuged at 11,000 g for 35 min. This washing step was performed two times in total. After the last centrifugation, the pellet was resuspended in Tris-sucrose buffer containing 0.001 M EDTA and frozen at −70° C.
The substrate corticosterone was dissolved in methanol and diluted with Tris buffer to a final concentration of 200 μM. The inhibitors were also dissolved in methanol and diluted with buffer to a final concentration of 1 μM. […] Corticosterone (200 μM) was incubated with inhibitor (1 μM) and mitochondrial enzyme (0.5 mg/0.5 ml) with the addition of a regenerating system consisting of NADP^+ (1 mM), glucose-6-phosphate (7 mM) and glucose-6-Phosphate dehydrogenase (1 IU/0.5 ml). Up to 5 inhibitors per test could be incubated in duplicate. […] After preincubation for 5 minutes (30° C.; water bath), the reaction was started by adding mitochondrial suspension. […] The blind values were admixed with 250 μl of HCl before the enzyme was pipetted in. The steroids were separated off by shaking with 1 ml of ethyl acetate (10 min). After centrifugation (15,000 g, 10 min), 900 μl of the organic phase was shaken with 250 μl 1 N NaOH (10 min), and 800 μl of supernatant was again washed with 250 μl of buffer. […] 18-OH-corticosterone (retention time: 10 min) and corticosterone (retention time: 21 min) were separated. The height of the 18-OH-corticosterone peak was used for evaluation. The percent inhibition of the 18-hydroxylation of corticosterone by the inhibitors was based on the mediums of the control incubation, taking the blind values into account.

Take “5-[(Z)-(5-Fluoro-2,3-dihydro-1H-indene-1-ylidene)methyl]-1H-imidazolium oxalate [Compound 47b]”: on human CYP17 (setting [1]), the “% Inhibition human CYP17” value is given as 11%. For the same compound, at human CYP11B2, the “% Inhibition human hCYP11B2” value worked out at 58%. Also, the “% Inhibition bovine bCYP11B” value on bovine adrenal CYP11B is listed as 64%.

On to `N#Cc1ccc2c(c1)CCC/C2=C/c1cnc[nH]1.O=C(O)C(=O)O` [Compound 44b, (5Z)-5-(1H-Imidazole-5-ylmethylene)-5,6,7,8-tetrahydronaphthalene-2-carbonitrile oxalate], for which the melting point is 206 °C. Besides, the inhibition at 2.5 µM on human CYP17 (setting [1]) amounted to 4%. In addition, the inhibition at 0.5 µM at human CYP11B2 amounted to 54%. In addition, the “% Inhibition bovine bCYP11B” value at bovine adrenal CYP11B (oxalate) amounted to 97%. Besides, the inhibition at 1 µM on bovine adrenal CYP11B was approximately 90%.

On to `N#Cc1ccc2c(c1)CC/C2=C\c1cnc[nH]1.O=C(O)C(=O)O` [Compound 45a, (1E)-1-(1H-Imidazole-5-ylmethylene)indane-5-carbonitrile oxalate], for which the melting point came out at 217 °C. Moreover, the inhibition at 2.5 µM on human CYP17 (setting [1]) turned out to be 21%. The inhibition at 0.5 µM on human CYP11B2 is 49%. Besides, the “% Inhibition bovine bCYP11B” value on bovine adrenal CYP11B (oxalate) came to 81%. For the same compound, at bovine adrenal CYP11B, the inhibition at 1 µM is approximately 90%.

Regarding `N#Cc1ccc2c(c1)CC/C2=C/c1cnc[nH]1.O=C(O)C(=O)O` [Compound 45b, (1Z)-1-(1H-Imidazole-5-ylmethylene)indane-5-carbonitrile oxalate], the melting point was 207 °C. Moreover, the inhibition at 2.5 µM at human CYP17 (setting [1]) amounted to 4%. The inhibition at 0.5 µM on human CYP11B2 came to 65%. Besides, the “% Inhibition bovine bCYP11B” value on bovine adrenal CYP11B (oxalate) is listed as 100%. Further, the inhibition at 1 µM on bovine adrenal CYP11B was approximately 90%.

For `Fc1ccc2c(c1)CC/C2=C\c1cnc[nH]1` [Compound 47a, 5-[(E)-(5-Fluoro-2,3-dihydro-1H-indene-1-ylidenemethyl]-1H-imidazolium chloride], the inhibition at 2.5 µM on human CYP17 (setting [1]) was 16%. The inhibition at 0.5 µM at human CYP11B2 was 59%. Moreover, the inhibition at 1 µM on bovine adrenal CYP11B stood at 67%.

Take `N#Cc1ccc(C2CCCc3cncn32)cc1` (stereo not drawn) [Fadrozole, 4-(5,6,7,8-tetrahydroimidazo[1,5-a]pyridine-5-yl)benzonitrile, reference compound]: the inhibition at 2.5 µM at human CYP17 is 7%; at CYP11B1 in NCI-H295R, 92%. Further, the “Aldosterone and corticosterone levels” value in the data set on ACTH-stimulated rats is “lowers the aldosterone and corticosterone levels”.
